Reference: ChEMBL document CHEMBL5360635 (J Med Chem, 2023)
pIC50: −log10 of the molar value. Activity calls are given as the source filed them. No cut-off for these calls is given here.

What was measured:
[1] = molecular target: T1, Lysine-specific demethylase 4E (Homo sapiens, UniProt B2RXH2); test: Inhibition of KDM4E (unknown origin) by SPE-MS analysis
T1 sequence (B2RXH2 whole entry): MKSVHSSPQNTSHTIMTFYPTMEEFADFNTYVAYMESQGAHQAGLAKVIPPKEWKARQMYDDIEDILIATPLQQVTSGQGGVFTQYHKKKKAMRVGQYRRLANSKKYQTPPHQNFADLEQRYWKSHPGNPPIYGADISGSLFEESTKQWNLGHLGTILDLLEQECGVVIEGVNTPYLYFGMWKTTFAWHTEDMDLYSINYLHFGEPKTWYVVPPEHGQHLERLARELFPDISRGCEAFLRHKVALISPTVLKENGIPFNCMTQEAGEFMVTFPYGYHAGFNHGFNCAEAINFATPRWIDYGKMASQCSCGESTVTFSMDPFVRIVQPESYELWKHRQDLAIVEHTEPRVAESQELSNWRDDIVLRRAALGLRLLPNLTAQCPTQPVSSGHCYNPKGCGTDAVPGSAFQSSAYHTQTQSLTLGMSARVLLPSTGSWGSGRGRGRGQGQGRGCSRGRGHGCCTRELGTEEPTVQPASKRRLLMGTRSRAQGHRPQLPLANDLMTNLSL

A549 [2] = test: Induction of cell cycle arrest in human A549 cells assessed as accumulation at sub G1 phase incubated for 24 hrs by PI staining based flow cytometry; assay type: functional
A549 [3] = test: Induction of replication stress in human A549 cells increase in micronuclei at 1 uM by DAPI staining based fluorescent microscopic analysis; assay type: functional, cell-based
A549 [4] = test: Induction of replication stress in human A549 cells increase in 53BP1 bodies at 1 uM by DAPI staining based fluorescent microscopic analysis; assay type: functional, cell-based
A549 [5] = test: Induction of cell cycle arrest in human A549 cells assessed as accumulation at G1 phase incubated for 24 hrs by PI staining based flow cytometry; assay type: functional
[6] = Inhibition of N-terminal his6-tagged FIH (unknown origin) expressed in Escherichia coli using HIF-alpha CAD (788 to 822 residues) expressed in Escherichia coli by SPE-MS analysis; set-up: species or system Homo sapiens
[7] = molecular target: T1, Lysine-specific demethylase 4E; test: Inhibition of KDM4E (unknown origin) by FDH-coupled spectrophotometric turnover assay
[8] = molecular target: Bifunctional peptidase and arginyl-hydroxylase JMJD5 (Homo sapiens, UniProt Q8N371); test: Inhibition of N-terminal his6-tagged-thioredoxin-tagged human recombinant JMJD5 expressed in Escherichia coli using RPS6 as substrate by SPE-MS analysis
Sequence of Bifunctional peptidase and arginyl-hydroxylase JMJD5 (Q8N371 whole entry): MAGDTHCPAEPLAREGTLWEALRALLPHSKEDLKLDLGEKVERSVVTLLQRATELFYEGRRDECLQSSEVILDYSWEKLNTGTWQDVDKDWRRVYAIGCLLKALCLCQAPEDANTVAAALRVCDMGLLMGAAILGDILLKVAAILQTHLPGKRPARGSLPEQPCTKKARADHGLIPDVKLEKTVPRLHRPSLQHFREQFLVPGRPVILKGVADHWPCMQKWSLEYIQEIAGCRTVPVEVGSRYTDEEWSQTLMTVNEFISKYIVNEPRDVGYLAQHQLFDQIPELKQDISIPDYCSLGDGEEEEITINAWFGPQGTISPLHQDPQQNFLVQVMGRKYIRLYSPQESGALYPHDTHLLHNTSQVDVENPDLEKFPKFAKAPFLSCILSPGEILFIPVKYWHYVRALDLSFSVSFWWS

In the case of O=C(O)c1ccnc(C(=O)O)c1C(F)(F)F, the IC50 [1] was “Not Active”.
In the case of COC(=O)c1cc(C(=O)OC)c(NCc2ccccc2OC)cn1, the Activity (A549 [2]) was “Active”, the Activity (A549 [3]) was “Active” and the Activity (A549 [4]) was “Active”. The Activity (A549 [5]) was “Active”.
With COC(=O)c1cc(C(=O)OC)c(NCc2ccccc2C2CC2)cn1 the Activity (A549 [2]) was “Active”, the Activity (A549 [3]) was “Active” and the Activity (A549 [4]) was “Active”. For the same molecule, the Activity (A549 [5]) was “Active”.
O=C(O)c1cc(C(=O)O)c(NCc2ccccc2C2CC2)cn1 showed a pIC50 [6] of under 4.30.
For O=C(O)c1cc(C(=O)O)c(C(F)(F)F)cn1, the IC50 [1] was “Not Active”.
In the case of O=C(O)c1ccnc(C(=O)O)c1Nc1ccccc1[N+](=O)[O-], the pIC50 [7] was 4.25.
For COc1ccccc1CNc1cnc(C(=O)O)cc1C(=O)O, the pIC50 [8] was 6.15.
